As a reminder, the EC50 is the midpoint of the concentration-response curve. Low values mean higher potency in that assay, high ones lower potency in that assay.

This passage reports EC50 and CLint scaled results from patent US10799507B2, “5-(7H-pyrrolo[2,3-d]pyrimidin-4-yl)-5-azaspiro[2.5]octane-8-carboxylic acid derivatives as novel JAK kinase inhibitors” (LEO Pharma A/S, priority 2017, dated 2020).

Where only a bound is given, the exact number is not on record here.

The target of one series is JAK3 (Homo sapiens (Human), UniProt P52333). The experiment in a line: JAK kinase assay (HTRF), JAK3. The class given is biochemical. The note with it: catalytic domain, ATP at Km (2 μM). The method, boiled down: (§1)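 Catalytic-domain human kinases, GST-tagged TYK2 (aa 871-1187) and His-tagged JAK3, phosphorylate 1 μM TK Substrate-Biotin for 20-30 min at RT in 50 mM Hepes pH 7.0, 5 mM MgCl2, ATP at Km (TYK2 13 μM with 50 nM SEB; JAK3 2 μM). Phosphorylation detected by HTRF.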
Chain of JAK3 (P52333 822-1111): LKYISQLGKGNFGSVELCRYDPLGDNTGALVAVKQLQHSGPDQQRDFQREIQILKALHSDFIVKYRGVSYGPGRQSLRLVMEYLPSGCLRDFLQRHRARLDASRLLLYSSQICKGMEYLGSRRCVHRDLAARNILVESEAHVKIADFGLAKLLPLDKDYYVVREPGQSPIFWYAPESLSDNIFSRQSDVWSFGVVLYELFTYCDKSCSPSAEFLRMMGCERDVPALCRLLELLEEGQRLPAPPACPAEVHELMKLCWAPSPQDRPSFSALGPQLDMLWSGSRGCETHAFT

Series [1] in a line: in vitro metabolic stability in human liver microsomes. The class given is in vitro ADME. To be noted: human, liver microsomes, 0.5 μM compound, 0.5 mg/mL microsomes, NADPH, 40 min, 37° C.; read-out: Human liver microsome Clapp (apparent intrinsic clearance). The method, then: To assess the in vitro metabolic stability, the compounds (0.5 μM) were incubated in duplicates with human liver microsomes (0.5 mg/mL) in phosphate buffer and NADPH, in 96-well plates for 40 min (37° C.), using a liquid handling robot (Hamilton Microlab Star). Sample aliquots were taken at 0, 5, 10, 20 and 40 min, and dispensed into cold acetonitrile, in order to stop the reactions. The plates were centrifuged for 30 minutes before the samples were analyzed using liquid chromatography coupled to a time-of-flight mass spectrometer (AB Sciex API5600). The compound depletion over time was used to estimate the elimination rate constant, from which the apparent intrinsic clearance, Clapp, was calculated and the values are listed in Table 2.

The target in another series is JAK1 (Homo sapiens (Human), UniProt P23458). The experiment in a line: JAK kinase assay (HTRF), JAK1. The format is biochemical. The note with it: catalytic domain, ATP at Km (7 μM). The method, boiled down:
(§2)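 Catalytic-domain human JAK1 (GST-tagged, aa 850-1154) or His-tagged JAK2, baculovirus-expressed, phosphorylated 1 µM biotinylated TK peptide at Km ATP (JAK1 7 µM, 10 mM MgCl2, 50 nM SEB; JAK2 4 µM, 5 mM MgCl2) in pH 7.0 Hepes, 20-30 min RT. EDTA stop; overnight streptavidin-XL665/cryptate HTRF read.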
(Time-resolved FRET reads energy transfer from a long-lived donor to a nearby acceptor.)

The target in the next series is JAK2 (Homo sapiens (Human), UniProt O60674). Description: JAK kinase assay (HTRF), JAK2. The class given is biochemical. The note with it: catalytic domain, ATP at Km (4 μM). The essentials:
as §2

A further series concerns the target TYK2 (Homo sapiens (Human), UniProt P29597). Description: JAK kinase assay (HTRF), TYK2. The class given is biochemical. To be noted: catalytic domain, ATP at Km (13 μM). The method, boiled down: as §1

Chain of JAK2 (O60674 849-1124): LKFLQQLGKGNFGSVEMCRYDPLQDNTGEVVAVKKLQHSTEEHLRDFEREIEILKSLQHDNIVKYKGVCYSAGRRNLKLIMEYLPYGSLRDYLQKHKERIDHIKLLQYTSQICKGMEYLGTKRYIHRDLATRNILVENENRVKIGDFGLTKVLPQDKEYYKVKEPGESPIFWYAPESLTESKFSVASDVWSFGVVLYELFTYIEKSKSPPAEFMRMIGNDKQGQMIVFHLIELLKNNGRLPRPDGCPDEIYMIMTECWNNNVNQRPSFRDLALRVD
Chain of TYK2 (P29597 871-1187): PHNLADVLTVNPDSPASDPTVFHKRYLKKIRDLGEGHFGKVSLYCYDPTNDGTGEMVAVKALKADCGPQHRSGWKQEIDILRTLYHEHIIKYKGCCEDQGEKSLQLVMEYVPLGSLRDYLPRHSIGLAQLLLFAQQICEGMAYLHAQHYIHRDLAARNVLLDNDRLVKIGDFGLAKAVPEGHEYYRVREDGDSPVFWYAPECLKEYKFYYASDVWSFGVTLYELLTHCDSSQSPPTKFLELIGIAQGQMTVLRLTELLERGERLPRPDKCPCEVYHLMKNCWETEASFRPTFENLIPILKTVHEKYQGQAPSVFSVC
Chain of JAK1 (P23458 850-1154): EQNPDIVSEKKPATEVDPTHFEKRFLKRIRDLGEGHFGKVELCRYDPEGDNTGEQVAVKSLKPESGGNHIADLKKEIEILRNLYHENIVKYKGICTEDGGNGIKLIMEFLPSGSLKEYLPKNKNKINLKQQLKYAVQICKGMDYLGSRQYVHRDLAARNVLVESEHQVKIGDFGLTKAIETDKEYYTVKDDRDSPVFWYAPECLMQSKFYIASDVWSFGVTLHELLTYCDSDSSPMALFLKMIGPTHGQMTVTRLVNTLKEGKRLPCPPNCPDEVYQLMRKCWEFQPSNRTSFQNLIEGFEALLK

Regarding `O=C(N[C@@H](CO)[C@H](O)c1ccc(F)cc1)[C@H]1CCN(c2ncnc3[nH]ccc23)CC12CC2` [Example 50, (8S)-N-[(1S,2R)-2-(4-fluorophenyl)-2-hydroxy-1-(hydroxymethyl)ethyl]-5-(7H-pyrrolo[2,3-d]pyrimidin-4-yl)-5-azaspiro[2.5]octane-8-carboxamide], the concentration for a half-maximal effect (EC50) on JAK3 came to 22.7 nM; on JAK1, 3.5 nM; on JAK2, 7 nM; on TYK2 it was 53.2 nM. The CLint scaled at 0.5 μM in series [1] is 109 mL/min/kg.
In the same order, the values of `Cc1cc(C#N)ccc1[C@H](CO)NC(=O)[C@H]1CCN(c2ncnc3[nH]ccc23)CC12CC2` [Example 37, (8S)-N-[(1R)-1-(4-cyano-2-methyl-phenyl)-2-hydroxy-ethyl]-5-(7H-pyrrolo[2,3-d]pyrimidin-4-yl)-5-azaspiro[2.5]octane-8-carboxamide] are 36.4 nM, 2 nM, 10.2 nM, 102 nM and 91 mL/min/kg.
In the same order, the values of `O=C(NC[C@@H](O)C1CCCC1)[C@H]1CCN(c2ncnc3[nH]ccc23)CC12CC2` [Example 32, (8S)-N-[(2S)-2-cyclopentyl-2-hydroxy-ethyl]-5-(7H-pyrrolo[2,3-d]pyrimidin-4-yl)-5-azaspiro[2.5]octane-8-carboxamide] are 8.3 nM, 1.8 nM, 5.2 nM, 25.4 nM and 159 mL/min/kg.
On to `N#Cc1ccc(CNC(=O)[C@H]2CCN(c3ncnc4[nH]ccc34)CC23CC3)cc1` [Example 13, (8S)-N-[(4-cyanophenyl)methyl]-5-(7H-pyrrolo[2,3-d]pyrimidin-4-yl)-5-azaspiro[2.5]octane-8-carboxamide], for which the EC50 on JAK3 was 8.9 nM; at JAK1 it was 0.9 nM; at JAK2, 6.1 nM; on TYK2, 81.1 nM. Further, the CLint scaled at 0.5 μM in series [1] was 82 mL/min/kg.
In the same order, the values of `O=C(OCC1CC(F)(F)C1)C1CCN(c2ncnc3[nH]ccc23)CC12CC2` (stereo not drawn) [Example 153, (3,3-difluorocyclobutyl)methyl 5-(7H-pyrrolo[2,3-d]pyrimidin-4-yl)-5-azaspiro[2.5]octane-8-carboxylate] are 8.9 nM, 2.3 nM, 3.2 nM, 68 nM and 160 mL/min/kg.
The corresponding values for `N#Cc1ccc(CNC(=O)C2CCN(c3ncnc4[nH]ccc34)CC23CC3)cc1` (stereo not drawn) [Example 26, N-[(4-cyanophenyl)methyl]-5-(7H-pyrrolo[2,3-d]pyrimidin-4-yl)-5-azaspiro[2.5]octane-8-carboxamide] are 11.2 nM, 1.4 nM, 6.4 nM, 196 nM and 78 mL/min/kg.
The corresponding values for `C[C@H](NC(=O)[C@H]1CCN(c2ncnc3[nH]ccc23)CC12CC2)c1ccc(C#N)cc1` [Example 22, (8S)-N-[(1S)-1-(4-cyanophenyl)ethyl]-5-(7H-pyrrolo[2,3-d]pyrimidin-4-yl)-5-azaspiro[2.5]octane-8-carboxamide] are 7.1 nM, 1.2 nM, 3.2 nM, 43.9 nM and 123 mL/min/kg.
Turning to `O=C(OCC1(CO)CS(=O)(=O)C1)[C@H]1CCN(c2ncnc3[nH]ccc23)CC12CC2` [Example 162, [3-(hydroxymethyl)-1,1-dioxo-thietan-3-yl]methyl (8S)-5-(7H-pyrrolo[2,3-d]pyrimidin-4-yl)-5-azaspiro[2.5]octane-8-carboxylate], the EC50 was 1.5 nM at JAK3, 0.2 nM at JAK1, 0.6 nM at JAK2 and 3.6 nM on TYK2. Also, the CLint scaled at 0.5 μM in series [1] is below 10 mL/min/kg.
The corresponding values for `O=C(NC[C@@H](O)c1ccc(F)cn1)[C@H]1CCN(c2ncnc3[nH]ccc23)CC12CC2` [Example 12, (8S)-N-[(2R)-2-(5-fluoro-2-pyridyl)-2-hydroxy-ethyl]-5-(7H-pyrrolo[2,3-d]pyrimidin-4-yl)-5-azaspiro[2.5]octane-8-carboxamide] are 26.5 nM, 0.8 nM, 4 nM, 13.9 nM and 143 mL/min/kg.
As to `O=C(NC[C@H](O)C1CCCC1)[C@H]1CCN(c2ncnc3[nH]ccc23)CC12CC2` [Example 11, (8S)-N-[(2R)-2-cyclopentyl-2-hydroxy-ethyl]-5-(7H-pyrrolo[2,3-d]pyrimidin-4-yl)-5-azaspiro[2.5]octane-8-carboxamide], the concentration for a half-maximal effect (EC50) came out at 6.7 nM at JAK3, 0.8 nM at JAK1, 2.1 nM on JAK2 and 18.2 nM on TYK2. For the same compound, the CLint scaled at 0.5 μM in series [1] was determined as 148 mL/min/kg.
In the same order, the values of `O=C(NCC1(CO)CCCC1)[C@H]1CCN(c2ncnc3[nH]ccc23)CC12CC2` [Example 52, (8S)-N-[[1-(hydroxymethyl)cyclopentyl]methyl]-5-(7H-pyrrolo[2,3-d]pyrimidin-4-yl)-5-azaspiro[2.5]octane-8-carboxamide] are 22.8 nM, 3.6 nM, 10.2 nM, 38 nM and 118 mL/min/kg.
The corresponding values for `O=C(NCC(O)c1ccc(F)cn1)[C@H]1CCN(c2ncnc3[nH]ccc23)CC12CC2` (stereo partly drawn) [Example 38, (8S)-N-[2-(5-fluoro-2-pyridyl)-2-hydroxy-ethyl]-5-(7H-pyrrolo[2,3-d]pyrimidin-4-yl)-5-azaspiro[2.5]octane-8-carboxamide] are 33.6 nM, 2.2 nM, 9 nM, 32.1 nM and 73 mL/min/kg.
The corresponding values for `N#Cc1ccc([C@H](CO)NC(=O)[C@H]2CCN(c3ncnc4[nH]ccc34)CC23CC3)cc1` [Example 18, (8S)-N-[(1R)-1-(4-cyanophenyl)-2-hydroxy-ethyl]-5-(7H-pyrrolo[2,3-d]pyrimidin-4-yl)-5-azaspiro[2.5]octane-8-carboxamide] are 7.5 nM, 1 nM, 3.5 nM, 45.5 nM and 44 mL/min/kg.
As to `O=C(NC[C@@H](O)c1ccc(F)cc1)[C@H]1CCN(c2ncnc3[nH]ccc23)CC12CC2` [Example 7, (8S)-N-[(2S)-2-(4-fluorophenyl)-2-hydroxy-ethyl]-5-(7H-pyrrolo[2,3-d]pyrimidin-4-yl)-5-azaspiro[2.5]octane-8-carboxamide], the EC50 came to 8.8 nM on JAK3, 0.6 nM on JAK1, 1.7 nM at JAK2 and 4.9 nM at TYK2. In addition, the CLint scaled at 0.5 μM in series [1] was above 200 mL/min/kg.
Regarding `O=C(N[C@@H](CO)c1ccc(F)cc1)[C@H]1CCN(c2ncnc3[nH]ccc23)CC12CC2` [Example 17, (8S)-N-[(1R)-1-(4-fluorophenyl)-2-hydroxy-ethyl]-5-(7H-pyrrolo[2,3-d]pyrimidin-4-yl)-5-azaspiro[2.5]octane-8-carboxamide], the half-maximal effective concentration (EC50) stood at 5.7 nM at JAK3, 1 nM on JAK1, 3 nM at JAK2 and 20.5 nM at TYK2. The CLint scaled at 0.5 μM in series [1] is 43 mL/min/kg.
The corresponding values for `C[C@H](NC(=O)[C@H]1CCN(c2ncnc3[nH]ccc23)CC12CC2)c1ccc(C#N)cc1F` [Example 20, (8S)-N-[(1S)-1-(4-cyano-2-fluoro-phenyl)ethyl]-5-(7H-pyrrolo[2,3-d]pyrimidin-4-yl)-5-azaspiro[2.5]octane-8-carboxamide] are 17.6 nM, 1.1 nM, 3.1 nM, 51.3 nM and 161 mL/min/kg.
The corresponding values for `C[C@@](CO)(NC(=O)[C@H]1CCN(c2ncnc3[nH]ccc23)CC12CC2)c1ccc(C#N)cn1` [Example 57, (8S)-N-[(1R)-1-(5-cyano-2-pyridyl)-2-hydroxy-1-methyl-ethyl]-5-(7H-pyrrolo[2,3-d]pyrimidin-4-yl)-5-azaspiro[2.5]octane-8-carboxamide] are 21.3 nM, 4.1 nM, 9 nM, 193 nM and 39 mL/min/kg.
In the same order, the values of `O=C(NCC1CC(F)(F)C1)C1CCN(c2ncnc3[nH]ccc23)CC12CC2` (stereo not drawn) [Example 56, N-[(3,3-difluorocyclobutyl)methyl]-5-(7H-pyrrolo[2,3-d]pyrimidin-4-yl)-5-azaspiro[2.5]octane-8-carboxamide] are 18.1 nM, 3.9 nM, 8.3 nM, 170 nM and 63 mL/min/kg.
